Laboratory results: PubChem BioAssay (NCI)
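In this assay, cells in 96-well plates receive the compound at five concentrations for 48 hours. Endpoints are linearly interpolated between the surrounding concentrations. GI50 is the concentration that inhibits growth by half. TGI marks complete inhibition of growth.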

Tests used:
Assay in all cases: NCI tumour cell line growth inhibition, 48 h
[1] = test system: NCI-H23 lung
[2] = test system: SW-620 colon
[3] = test system: SF-268 CNS
[4] = test system: SR leukemia
[5] = test system: NCI-H460 lung
[6] = test system: ACHN renal
[7] = test system: COLO 205 colon
[8] = test system: NCI-H226 lung
[9] = test system: OVCAR-5 ovarian
[10] = test system: HCC-2998 colon

Cc1cc(O)cc2c1c(=O)c1ccccc1n2C
TGI [1]: > 100 µM | TGI [2]: > 100 µM | TGI [3]: 84.4 µM | TGI [4]: > 100 µM | TGI [5]: > 100 µM | TGI [6]: > 100 µM | TGI [7]: > 100 µM | TGI [8]: > 100 µM | TGI [9]: > 100 µM

COc1ccc2nc3cccc(C(=O)NCCN(C)C)c3nc2c1
TGI [1]: 3.41 µM | TGI [10]: 6.16 µM | TGI [4]: > 100 µM | TGI [6]: 6.78 µM | TGI [7]: > 24.3 µM | TGI [8]: 3.85 µM | TGI [9]: 6.17 µM

CCOC(=O)/N=c1/nc(N(C)C)ss1
TGI [1]: > 100 µM | TGI [2]: > 100 µM | TGI [3]: > 100 µM | TGI [10]: > 100 µM | TGI [4]: > 100 µM | TGI [5]: > 100 µM | TGI [6]: > 100 µM | TGI [8]: > 100 µM | TGI [9]: > 100 µM

NCP(=O)(O)OCC(=O)O
TGI [1]: > 100 µM | TGI [2]: > 100 µM | TGI [3]: > 100 µM | TGI [4]: > 100 µM | TGI [5]: > 100 µM | TGI [6]: > 100 µM | TGI [7]: > 100 µM | TGI [9]: > 100 µM

COc1ccc(/C=N/N=C(\[O-])c2ccncc2)cc1F.COc1ccc(/C=N\N=C(/[O-])c2ccncc2)cc1F.[Cu+2]
GI50 [1]: 25.4 µM | TGI [1]: 58.2 µM | GI50 [2]: 35.7 µM | TGI [2]: > 100 µM | GI50 [3]: 25.9 µM | TGI [3]: 86.3 µM | GI50 [10]: 32.9 µM | TGI [10]: > 100 µM | GI50 [4]: 16.8 µM | TGI [4]: 69.6 µM | GI50 [5]: 13.6 µM | TGI [5]: 26.5 µM | GI50 [6]: 39.5 µM | TGI [6]: > 100 µM | GI50 [7]: 19.7 µM | TGI [7]: 42.2 µM | GI50 [9]: 18.6 µM | TGI [9]: 32.7 µM

O=C(CC(=O)c1ccccc1)c1ccccc1
GI50 [1]: 13.6 µM | TGI [1]: 43.4 µM | GI50 [2]: 13.2 µM | TGI [2]: > 100 µM | GI50 [3]: 10.9 µM | TGI [3]: 57.7 µM | GI50 [4]: 11.7 µM | TGI [4]: > 100 µM | GI50 [5]: 7.94 µM | TGI [5]: 40 µM | GI50 [6]: 11.5 µM | TGI [6]: 34.5 µM | GI50 [7]: 22.5 µM | TGI [7]: > 100 µM | GI50 [8]: 37.2 µM | TGI [8]: > 100 µM | GI50 [9]: 25.6 µM | TGI [9]: > 100 µM

Cc1cc(O)c(C(c2ccncc2)c2c(O)cc(C)[nH]c2=O)c(=O)[nH]1
TGI [1]: > 100 µM | TGI [3]: > 100 µM | TGI [4]: > 100 µM | TGI [5]: > 100 µM | TGI [6]: > 100 µM | TGI [7]: > 100 µM | TGI [9]: > 100 µM

COc1c(N2CCN(Cn3c(O)c(N=NC(=O)c4ccncc4)c4cc(F)ccc43)C(C)C2)c(F)cc2c(=O)c(C(=O)O)cn(C3CC3)c12 (configuration not stated)
GI50 [1]: 16.7 µM | TGI [1]: > 50 µM | GI50 [2]: 13.2 µM | TGI [2]: > 50 µM | GI50 [3]: 10.6 µM | TGI [3]: 38.2 µM | GI50 [4]: 16.3 µM | TGI [4]: > 50 µM | GI50 [5]: 12.4 µM | TGI [5]: > 50 µM | GI50 [6]: 12.5 µM | TGI [6]: > 50 µM | GI50 [7]: > 50 µM | TGI [7]: > 50 µM | GI50 [8]: 25.4 µM | TGI [8]: > 50 µM | GI50 [9]: 33.3 µM | TGI [9]: > 50 µM

N#Cc1cccc(OCc2ccccc2COc2cccc(C#N)c2)c1
GI50 [1]: 36.7 µM | TGI [1]: > 100 µM | GI50 [2]: > 100 µM | TGI [2]: > 100 µM | GI50 [3]: 25 µM | TGI [3]: 61.2 µM | GI50 [10]: > 100 µM | TGI [10]: > 100 µM | GI50 [5]: 40.8 µM | TGI [5]: > 100 µM | GI50 [6]: 27.2 µM | TGI [6]: 86.3 µM | GI50 [7]: 33.8 µM | TGI [7]: 98.3 µM | GI50 [8]: 29.1 µM | TGI [8]: 88.1 µM | GI50 [9]: 87 µM | TGI [9]: > 100 µM

COC(=O)C1CC(C(=O)OC)c2nc3cc(C)c(C)cc3nc21 (configuration not stated)
TGI [1]: > 100 µM | TGI [2]: > 100 µM | TGI [3]: > 100 µM | TGI [10]: > 100 µM | TGI [5]: > 100 µM | TGI [6]: > 100 µM | TGI [7]: > 100 µM | TGI [8]: > 100 µM | TGI [9]: > 100 µM

C#CCN(Cc1nc2cc(C(F)(F)F)ccc2nc1-c1ccccc1)c1ccc(F)c(F)c1
GI50 [1]: 94.3 µM | TGI [1]: > 100 µM | GI50 [2]: 36 µM | TGI [2]: > 100 µM | GI50 [3]: 22.1 µM | TGI [3]: > 100 µM | GI50 [10]: 44.8 µM | TGI [10]: 96.9 µM | GI50 [5]: 26.5 µM | TGI [5]: > 100 µM | GI50 [6]: 78.3 µM | TGI [6]: > 100 µM | GI50 [7]: 29.4 µM | TGI [7]: > 100 µM | GI50 [8]: 92.5 µM | TGI [8]: > 100 µM | GI50 [9]: > 100 µM | TGI [9]: > 100 µM

Cn1cc(NC(=O)c2cc(NC(=O)CCCCCCC(=O)Nc3cc(C(=O)Nc4cc(C(=O)NCCC(=N)N)n(C)c4)n(C)c3)cn2C)cc1C(=O)NCCC(=N)N
TGI [1]: 15.3 µM | TGI [2]: > 100 µM | TGI [3]: > 100 µM | TGI [10]: 23.2 µM | TGI [5]: 21.4 µM | TGI [6]: 54 µM | TGI [7]: 18.9 µM | TGI [9]: > 100 µM

COc1ccc2c(c1)OCCC1=C2SCC2(C)CCN=C12 (configuration not stated)
TGI [1]: > 100 µM | TGI [2]: > 100 µM | TGI [3]: > 100 µM | TGI [5]: > 100 µM | TGI [7]: > 100 µM | TGI [8]: > 100 µM

Nc1ccc(C(=O)N/C(=C\c2cccc([N+](=O)[O-])c2)c2nc3c4c(ccc3[nH]2)C(=O)c2ccccc2C4=O)cc1
TGI [1]: > 100 µM | TGI [2]: > 100 µM | TGI [3]: > 100 µM | TGI [10]: > 100 µM | TGI [5]: > 100 µM | TGI [7]: > 100 µM | TGI [9]: > 100 µM

CN1CCN(CCOc2ccc(-c3cnc4c(-c5ccc(F)cc5)cnn4c3)cc2)CC1
GI50 [1]: 1.73 µM | TGI [1]: 3.25 µM | GI50 [2]: 1.89 µM | TGI [2]: 3.56 µM | GI50 [3]: 2.03 µM | TGI [3]: 5.31 µM | GI50 [10]: 1.77 µM | TGI [10]: 3.45 µM | GI50 [4]: 2.07 µM | TGI [4]: 10.9 µM | GI50 [5]: 1.54 µM | TGI [5]: 3.06 µM | GI50 [6]: 1.42 µM | TGI [6]: 2.73 µM | GI50 [9]: 1.6 µM | TGI [9]: 3.03 µM

Cn1ccnc1C[N-]Cc1nccn1C.O=[N+]([O-])[O-].O=[N+]([O-])[O-].[Cu+2]
GI50 [1]: > 100 µM | TGI [1]: > 100 µM | GI50 [2]: > 100 µM | TGI [2]: > 100 µM | GI50 [3]: > 100 µM | TGI [3]: > 100 µM | GI50 [10]: > 100 µM | TGI [10]: > 100 µM | GI50 [5]: 62.8 µM | TGI [5]: > 100 µM | GI50 [7]: > 100 µM | TGI [7]: > 100 µM | GI50 [8]: > 100 µM | TGI [8]: > 100 µM

C1C[OH+]CC[OH+]CC[OH+]CC[OH+]CC[OH+]CC[OH+]1.[Cl-].[Nb+5]
GI50 [1]: > 100 µM | TGI [1]: > 100 µM | GI50 [2]: > 100 µM | TGI [2]: > 100 µM | GI50 [3]: > 100 µM | TGI [3]: > 100 µM | GI50 [10]: > 100 µM | TGI [10]: > 100 µM | GI50 [5]: > 100 µM | TGI [5]: > 100 µM | GI50 [6]: > 100 µM | TGI [6]: > 100 µM | GI50 [7]: > 100 µM | TGI [7]: > 100 µM | GI50 [8]: > 100 µM | TGI [8]: > 100 µM

CCOC(=O)/C(C#N)=C/Nc1ccc(-c2nc3ccccc3[nH]2)cc1
GI50 [2]: 54.1 µM | TGI [2]: > 100 µM | GI50 [3]: 19.2 µM | TGI [3]: 47.4 µM | GI50 [4]: 40.8 µM | TGI [4]: > 100 µM | GI50 [5]: 24.8 µM | TGI [5]: > 100 µM | GI50 [6]: 25.4 µM | TGI [6]: 78 µM | GI50 [7]: 28.8 µM | TGI [7]: > 100 µM | GI50 [8]: > 100 µM | TGI [8]: > 100 µM | GI50 [9]: 50.8 µM | TGI [9]: > 100 µM
